Assay results: US10617691B2, “Combination of an anti-CD19 antibody and a Bruton's tyrosine kinase inhibitor and uses thereof” (MORPHOSYS AG, priority 2015, dated 2020)

B1: MOR00208: anti-CD19 antibody; heavy chain SEQ ID NO: 14, light chain SEQ ID NO: 15 (antibody)
heavy: EVQLVESGGGLVKPGGSLKLSCAASGYTFTSYVMHWVRQAPGKGLEWIGYINPYNDGTKYNEKFQGRVTISSDKSISTAYMELSSLRSEDTAMYYCARGTYYYGTRVFDYWGQGTLVTVSSASTKGPSVFPLAPSSKSTSGGTAALGCLVKDYFPEPVTVSWNSGALTSGVHTFPAVLQSSGLYSLSSVVTVPSSSLGTQTYICNVNHKPSNTKVDKKVEPKSCDKTHTCPPCPAPELLGGPDVFLFPPKPKDTLMISRTPEVTCVVVDVSHEDPEVQFNWYVDGVEVHNAKTKPREEQFNSTFRVVSVLTVVHQDWLNGKEYKCKVSNKALPAPEEKTISKTKGQPREPQVYTLPPSREEMTKNQVSLTCLVKGFYPSDIAVEWESNGQPENNYKTTPPMLDSDGSFFLYSKLTVDKSRWQQGNVFSCSVMHEALHNHYTQKSLSLSPGK
light: DIVMTQSPATLSLSPGERATLSCRSSKSLQNVNGNTYLYWFQQKPGQSPQLLIYRMSNLNSGVPDRFSGSGSGTEFTLTISSLEPEDFAVYYCMQHLEYPITFGAGTKLEIKRTVAAPSVFIFPPSDEQLKSGTASVVCLLNNFYPREAKVQWKVDNALQSGNSQESVTEQDSKDSTYSLSSTLTLSKADYEKHKVYACEVTHQGLSSPVTKSFNRGEC

System: MEC-1 cells
Assay: ADCC target cell killing of MEC-1 cells by NK cells (FACS, DAPI positive dead target cells), MOR00208 and Ibrutinib alone and in combination
Format: cell-based
Protocol: Cell lines tested: MEC-1 cells (DSMZ # ACC497). Cell lines are tested: chronic B-cell leukemia cell line; JVM-2 (ATCC® CRL-3002) a mantle cell lymphoma cell line; Ramos cells (ATCC number CRL-1596), a human Burkitt's lymphoma cells; HG-3 (DSMZ # ACC765), and CII (DSMZ # ACC773) are a chronic lymphocytic leukemia cell line; Su-DHL 6 (DSMZ # ACC572), U2932 (DSMZ # ACC633) and OCI-LY7 (DSMZ # ACC688) are a Diffuse large B-cell lymphoma (DLBCL) cell line; JVM-2 (ATCC® CRL-3002) is a mantle cell lymphoma cell line; and BALL-1 (DSMZ # ACC742) is an acute lymphoblastic leukemia cell line.
The cytotoxicity of MOR00208 and Ibrutinib alone and in combination were tested in the MEC-1 cell line (CLL). The cytotoxicity of MOR00208 and Ibrutinib alone and in combination are tested in the following target cell lines: JVM-2, Ramos, HG-3, CII, Su-DHL 6, U2932, OCI-LY7, JVM-2 and BALL-1.
Ibrutinib is a covalent inhibitor of Bruton's tyrosine kinase and should abrogate proliferation in target cell lines. MOR00208 targets CD19 and mediates target cell killing via ADCC. Target cell killing is measured using the following parameters: Ibrutinib at a concentration range of between 0.033 and 33 μM, specifically at 0.3 μM, 1.0 μM and 3.0 μM; MOR00208 at a concentration range from 0.001-10 nM, specifically at 0.01 nM, 0.1 nM, and 10 nM, and the combination of MOR00208 and Ibrutinib. The following are used as controls: RefmAb33 or NK cells alone. In the Ibrutinib group as well as in the MOR00208+Ibrutinib combination group, target cells are pre-treated with Ibrutinib for 7 days prior to the ADCC assay measurements. The target cells are counted and stained using 1 μg/ml CFSE end concentration. For DMSO treated target cells, an effector: target (E:T) ratio of 2:1 is chosen, corresponding to a cell density of 5×10^5/ml. The proliferative effect on target cells caused by Ibrutinib treatment was included by adjusting the E:T ratio in inhibitor treated cells. The NK cells are counted and adjusted to 1×10^6/ml. The target cell killing assays were performed as follows: using 96 well plates, 100 μl of target cell suspension was added per well, followed by 100 μl cell suspension of NK cells to each well resulting in an E:T ratio of 2:1. The antibodies were diluted in a range of 10-0.001 nM in medium. Cells were centrifuged and target: effector cell-pellets were re-suspended in 100 μl antibody-containing medium or the according control solution. The assay was incubated for 4 h in CO2-incubator at 37° C. After 10 min incubation on ice, 50 μl DAPI solution was added to each well (final concentration 1 μg/ml) and incubated on ice for 10 min. The cell killing measurements were performed with FACS-Verse. Dead target cells were DAPI positive.
In total, three experiments were performed in order to determine the mediation of ADCC on MEC-1 cells by the combination of MOR00208 and Ibrutinib.
The raw data (% dead cells) are analyzed as follows: 1) from the raw data (% dead cells), the background (controls) are subtracted, resulting in the specific killing for each treatment group; then 2) the specific killing values are normalized by setting the combination of MOR00208+Ibrutinib to 1.
Combination Index (CI) calculations are completed in order to determine synergy of the combination of the exemplified anti-CD19 antibody and Ibrutinib as compared to MOR00208 and Ibrutinib alone. Such calculations are described in Ting-Chao Chou, Theoretical Basis, Experimental Design, and Computerized Simulation of Synergism and Antagonism in Drug Combination Studies, Pharmacol Rev 58:621-681 (2006), which is incorporated by reference in its entirety and Chou T C, Talalay P, Quantitative analysis of dose-effect relationships: the combined effects of multiple drugs or enzyme inhibitors. Adv Enzyme Regul 22: 27-55 (1984), which is incorporated by reference in its entirety. The methods of Chou-Talalay are carried out using the CI-isobol method. […]

[1] = Experiment 1, Ibrutinib at 0.3 μM, MOR00208 0.01 nM, control (0.1% DMSO/Ref33) 25.27
[2] = Experiment 1, Ibrutinib at 0.3 μM, MOR00208 0.1 nM, control (0.1% DMSO/Ref33) 25.27
[3] = Experiment 1, Ibrutinib at 0.3 μM, MOR00208 10 nM, control (0.1% DMSO/Ref33) 25.27
[4] = Experiment 1, Ibrutinib at 1 μM, MOR00208 0.01 nM, control (0.1% DMSO/Ref33) 25.27
[5] = Experiment 1, Ibrutinib at 1 μM, MOR00208 0.1 nM, control (0.1% DMSO/Ref33) 25.27
[6] = Experiment 1, Ibrutinib at 1 μM, MOR00208 10 nM, control (0.1% DMSO/Ref33) 25.27
[7] = Experiment 1, Ibrutinib at 3 μM, MOR00208 0.01 nM, control (0.1% DMSO/Ref33) 25.27
[8] = Experiment 1, Ibrutinib at 3 μM, MOR00208 0.1 nM, control (0.1% DMSO/Ref33) 25.27
[9] = Experiment 1, Ibrutinib at 3 μM, MOR00208 10 nM, control (0.1% DMSO/Ref33) 25.27
[10] = Experiment 2, Ibrutinib at 0.3 μM, MOR00208 0.01 nM, control (0.03% DMSO/Ref33) 9.81
[11] = Experiment 2, Ibrutinib at 0.3 μM, MOR00208 0.1 nM, control (0.03% DMSO/Ref33) 9.81
[12] = Experiment 2, Ibrutinib at 0.3 μM, MOR00208 10 nM, control (0.03% DMSO/Ref33) 9.81
[13] = Experiment 2, Ibrutinib at 1 μM, MOR00208 0.01 nM, control (0.03% DMSO/Ref33) 9.81
[14] = Experiment 2, Ibrutinib at 1 μM, MOR00208 0.1 nM, control (0.03% DMSO/Ref33) 9.81
[15] = Experiment 2, Ibrutinib at 1 μM, MOR00208 10 nM, control (0.03% DMSO/Ref33) 9.81
[16] = Experiment 2, Ibrutinib at 3 μM, MOR00208 0.01 nM, control (0.03% DMSO/Ref33) 9.81
[17] = Experiment 2, Ibrutinib at 3 μM, MOR00208 0.1 nM, control (0.03% DMSO/Ref33) 9.81
[18] = Experiment 2, Ibrutinib at 3 μM, MOR00208 10 nM, control (0.03% DMSO/Ref33) 9.81
[19] = Experiment 3, Ibrutinib at 0.3 μM, MOR00208 0.01 nM, control (0.03% DMSO/Ref33) 16.40
[20] = Experiment 3, Ibrutinib at 0.3 μM, MOR00208 0.1 nM, control (0.03% DMSO/Ref33) 16.40
[21] = Experiment 3, Ibrutinib at 0.3 μM, MOR00208 10 nM, control (0.03% DMSO/Ref33) 16.40
[22] = Experiment 3, Ibrutinib at 1 μM, MOR00208 0.01 nM, control (0.03% DMSO/Ref33) 16.40
[23] = Experiment 3, Ibrutinib at 1 μM, MOR00208 0.1 nM, control (0.03% DMSO/Ref33) 16.40
[24] = Experiment 3, Ibrutinib at 1 μM, MOR00208 10 nM, control (0.03% DMSO/Ref33) 16.40
[25] = Experiment 3, Ibrutinib at 3 μM, MOR00208 0.01 nM, control (0.03% DMSO/Ref33) 16.40
[26] = Experiment 3, Ibrutinib at 3 μM, MOR00208 0.1 nM, control (0.03% DMSO/Ref33) 16.40
[27] = Experiment 3, Ibrutinib at 3 μM, MOR00208 10 nM, control (0.03% DMSO/Ref33) 16.40

Molecule	percent (%) dead cells (raw data) [1]	percent (%) dead cells (raw data) [2]	percent (%) dead cells (raw data) [3]	percent (%) dead cells (raw data) [4]	percent (%) dead cells (raw data) [5]	percent (%) dead cells (raw data) [6]	percent (%) dead cells (raw data) [7]	percent (%) dead cells (raw data) [8]	percent (%) dead cells (raw data) [9]	percent (%) dead cells (raw data) [10]	percent (%) dead cells (raw data) [11]	percent (%) dead cells (raw data) [12]	percent (%) dead cells (raw data) [13]	percent (%) dead cells (raw data) [14]	percent (%) dead cells (raw data) [15]	percent (%) dead cells (raw data) [16]	percent (%) dead cells (raw data) [17]	percent (%) dead cells (raw data) [18]	percent (%) dead cells (raw data) [19]	percent (%) dead cells (raw data) [20]	other results
C=CC(=O)N1CCC[C@@H](n2nc(-c3ccc(Oc4ccccc4)cc3)c3c(N)ncnc32)C1 [Ibrutinib, 1-[(3R)-3-[4-amino-3-(4-phenoxyphenyl)-1H-pyrazolo[3,4-d]pyrimidin-1-yl]-1-piperidinyl]-2-propen-1-one]	21.99%	21.99%	21.99%	24.33%	24.33%	24.33%	17.07%	17.07%	17.07%	8.56%	8.56%	8.56%	8.39%	8.39%	8.39%	10.84%	10.84%	10.84%	8.56%	8.56%	percent (%) dead cells (raw data) [21]: 8.56%; percent (%) dead cells (raw data) [22]: 7.50%; percent (%) dead cells (raw data) [23]: 7.50%; percent (%) dead cells (raw data) [24]: 7.50%; percent (%) dead cells (raw data) [25]: 8.26%; percent (%) dead cells (raw data) [26]: 8.26%; percent (%) dead cells (raw data) [27]: 8.26%
B1	56.54%	72.31%	73.77%	56.54%	72.31%	73.77%	56.54%	72.31%	73.77%	37.57%	52.10%	50.83%	37.57%	52.10%	50.83%	37.57%	52.10%	50.83%	63.68%	81.30%	percent (%) dead cells (raw data) [21]: 81.41%; percent (%) dead cells (raw data) [22]: 63.68%; percent (%) dead cells (raw data) [23]: 81.30%; percent (%) dead cells (raw data) [24]: 81.41%; percent (%) dead cells (raw data) [25]: 63.68%; percent (%) dead cells (raw data) [26]: 81.30%; percent (%) dead cells (raw data) [27]: 81.41%
